Laboratory results taken from patent US4118424A, “Biodegradable insecticides” (priority 1976, dated 1978).
In brackets after ≈: the same amount, converted by molar mass.

Assays:
[1] = Biodegradability studies, general statement
Description: (§1) Metabolic studies involving insects, mice, and fish and a model ecosystem (such as described in U.S. Pat. No. 3,787,505) and insecticidal activity studies generally involving flies and mosquitoes have shown that both the symmetrical and the asymmetrical compounds of the present invention are effective. Thus, the new compounds can be represented by the general formula: [drawing 3] where R1 is H or Cl and R2 is CH3 or Cl, X and X^1 are the same or different and each is selected from the group consisting of C1 to C3 alkyl groups and C1 to C4 alkoxy groups.
(§2) In addition, DCP was tested for mouse toxicity, fish toxicity and biodegradibility.

[2] = test system: houseflies, DDT resistant strain (RSP); assay: Insecticidal activity, housefly, resistant strain (RSP), Table I; type: in vivo; settings: for RSP alone (insecticidal activity; head is a drawing): compound alone; for RSP with P.B. (insecticidal activity; head is a drawing): with piperonyl butoxide synergist
Description: as §1, §2

mice [3] = assay: Mouse toxicity, oral, Table I; type: in vivo; settings: for mouse toxicity (head is a drawing): oral administration
Protocol: as §2

[4] = test system: houseflies, susceptible strain (SNAIDM); assay: Insecticidal activity, housefly, susceptible strain (SNAIDM), Table I; type: in vivo; settings: for SNAIDM alone (insecticidal activity; head is a drawing): compound alone; for SNAIDM with P.B. (insecticidal activity; head is a drawing): with piperonyl butoxide synergist
Description: as §1, §2

fish = assay: Fish toxicity, Table I; type: in vivo
Protocol: as §2

[5] = test system: Anopheles albimanus larvae; assay: Insect toxicity, Anopheles albimanus larvae; type: in vivo
Culex fatigans = assay: Persistence on plywood surfaces of test huts, Culex fatigans; type: in vivo; settings: adult mosquitoes
Protocol: (§3) The persistence of some of the compounds of the present invention was evaluated and compared with that of ethoxychlor. In these tests, the compounds were applied to the plywood surfaces of test huts and the mortalities of adult mosquitoes contained in the huts were measured to determine the number of weeks that 50% mortality continued to occur.

Culex fatigans adults = assay: Insect toxicity, Culex fatigans adults; type: in vivo
[6] = test system: insects (flies and mosquitoes); assay: Insecticidal activity, general statement; type: in vivo; settings: versus ethoxychlor
Description: as §1

[7] = test system: Anopheles albimanus adults; assay: Insect toxicity, Anopheles albimanus adults; type: in vivo
[8] = test system: Musca domestica (NAIDM strain); assay: Insect toxicity, Musca domestica NAIDM strain; type: in vivo; settings: for LD50: Musca domestica, without PB; for Musca domestica NAIDM (w/PB) LD50: with PB
mice [9] = assay: Mouse toxicity, LD50; type: in vivo; settings: versus ethoxychlor
Mouse toxicity, LD50 = type: in vivo, mice; settings: in vivo
Culex fatigans larvae = assay: Insect toxicity, Culex fatigans larvae; type: in vivo; settings: Culex quinquefasciatus
[10] = test system: green sunfish (Lepomis cyanellus); assay: Green sunfish toxicity over a period of time; type: in vivo; settings: initial concentration 0.1 ppm
Description: The compounds of Example III, V, XI, XIV and XXI were further tested and compared with ethoxychlor to determine fish toxicities over a period of time. In these tests, green sunfish (Lepomis cyanellus) were subject to an initial concentration dosage of 0.1 ppm and the number of days that 100 percent mortalities occurred was observed.

Anopheles albimanus = assay: Persistence on plywood surfaces of test huts, Anopheles albimanus; type: in vivo; settings: adult mosquitoes
Protocol: as §3

[11] = test system: Musca domestica Rsp strain; assay: Insect toxicity, Musca domestica Rsp strain, DDT-resistant; type: in vivo; settings: for LD50: Musca domestica, without PB; for Musca domestica Rsp strain w/PB LD50: with PB
Phormia regina = assay: Insect toxicity, Phormia regina; type: in vivo

## COc1ccc(C(c2ccc(OC)cc2)C(C)Cl)cc1 (stereo not drawn) [DCP, 1,1-bis(p-methoxyphenyl)-2-chloropropane]
[1]
  biodegradability (in words): more biodegradable than methoxychlor
[2]; DDT resistant strain, alone
  toxicity to DDT resistant strain of houseflies, alone (in words): not as toxic as DDT or methoxychlor
[2]; resistant strain
  RSP alone (insecticidal activity; head is a drawing): > 500
  RSP with P.B. (insecticidal activity; head is a drawing): 4.1
[2]; resistant strain, with P.B.
  toxicity to resistant strain of houseflies with piperonyl butoxide (in words): at least as toxic as methoxychlor and considerably more toxic than DDT
Mice [3]
  mouse toxicity (head is a drawing): > 1000
Mice [3]; oral administrations to mice
  mouse toxicity (in words): considerably less toxic than DDT and comparable to methoxychlor
[4]; alone
  toxicity to susceptible strain of houseflies, alone (in words): not as toxic as DDT or methoxychlor
[4]
  SNAIDM alone (insecticidal activity; head is a drawing): 935
  SNAIDM with P.B. (insecticidal activity; head is a drawing): 3.5
[4]; with P.B.
  toxicity to susceptible strain of houseflies with piperonyl butoxide (in words): at least as toxic as methoxychlor and considerably more toxic than DDT
fish
  fish toxicity (head is a drawing): > 3
  fish toxicity (in words): less toxic than either DDT or methoxychlor

## Clc1ccc(C(c2ccc(Cl)cc2)C(Cl)(Cl)Cl)cc1 [DDT, 1,1,1-trichloro-2,2-bis(p-chlorophenyl) ethane, reference compound]
[2]; resistant strain
  RSP alone (insecticidal activity; head is a drawing): 270
  RSP with P.B. (insecticidal activity; head is a drawing): 70
Mice [3]
  mouse toxicity (head is a drawing): 200
[4]
  SNAIDM alone (insecticidal activity; head is a drawing): 14.0
  SNAIDM with P.B. (insecticidal activity; head is a drawing): 5.5
fish
  fish toxicity (head is a drawing): 0.30

## CCOc1ccc(C(c2ccc(C)cc2)C(C)Cl)cc1 (stereo not drawn) [Example III]
[5]
  LC50: 0.09 µg/mL (≈ 0.312 µM)
Culex fatigans
  Culex fatigans, P50 (number of weeks that at least 50% mortality occurred): > 8 weeks
Culex fatigans adults
  Culex fatigans adults-LC50: 10 ug/cm^2
[6]
  insecticidal activity relative to ethoxychlor: at least generally comparable to ethoxychlor
[7]
  Anopheles albimanus adults LC50: 1.1 ug/cm^2
[8]
  LD50: 39 mg/kg
  Musca domestica NAIDM (w/PB) LD50: 10 µg/g
Mice [9]
  safety to mice relative to ethoxychlor: at least five times safer to mice than is ethoxychlor
Mouse toxicity, LD50
  LD50: ≥ 1000 mg/kg
Culex fatigans larvae
  LC50: 0.08 µg/mL (≈ 0.277 µM)
[10]
  Number of days 100% mortality: 0 days
Anopheles albimanus
  Anopheles albimanus, P50 (number of weeks that at least 50% mortality occurred): > 6 weeks
[11]
  LD50: 95 mg/kg
  Musca domestica Rsp strain w/PB LD50: 14 µg/g
Phormia regina
  LD50: 6.75 mg/kg

## CCOc1ccc(C(c2ccc(OCC)cc2)C(C)C)cc1 [Example XI]
[5]
  LC50: 0.028 µg/mL (≈ 0.0938 µM)
Culex fatigans
  Culex fatigans, P50 (number of weeks that at least 50% mortality occurred): 40 weeks
Culex fatigans adults
  Culex fatigans adults-LC50: 14.3 ug/cm^2
[6]
  insecticidal activity relative to ethoxychlor: at least generally comparable to ethoxychlor
[7]
  Anopheles albimanus adults LC50: 4.5 ug/cm^2
[8]
  LD50: 21.5 mg/kg
  Musca domestica NAIDM (w/PB) LD50: 3.5 µg/g
Mice [9]
  safety to mice relative to ethoxychlor: at least five times safer to mice than is ethoxychlor
Mouse toxicity, LD50
  LD50: ≥ 1000 mg/kg
Culex fatigans larvae
  LC50: 0.08 µg/mL (≈ 0.268 µM)
[10]
  Number of days 100% mortality: > 35 days
Anopheles albimanus
  Anopheles albimanus, P50 (number of weeks that at least 50% mortality occurred): > 44 weeks
[11]
  LD50: 38 mg/kg
  Musca domestica Rsp strain w/PB LD50: 12.5 µg/g
Phormia regina
  LD50: 14.5 mg/kg

## COc1ccc(C(c2ccc(OC)cc2)C(Cl)(Cl)Cl)cc1 [Methoxychlor, reference compound]
[2]; resistant strain
  RSP alone (insecticidal activity; head is a drawing): 48
  RSP with P.B. (insecticidal activity; head is a drawing): 4.6
[4]
  SNAIDM alone (insecticidal activity; head is a drawing): 45.0
  SNAIDM with P.B. (insecticidal activity; head is a drawing): 3.5
fish
  fish toxicity (head is a drawing): 1

## CCOc1ccc(C(c2ccc(OCC)cc2)C(C)Cl)cc1 (stereo not drawn) [V]
[5]
  LC50: 0.047 µg/mL (≈ 0.147 µM)
Culex fatigans
  Culex fatigans, P50 (number of weeks that at least 50% mortality occurred): > 70 weeks
Culex fatigans adults
  Culex fatigans adults-LC50: 56 ug/cm^2
[6]
  insecticidal activity relative to ethoxychlor: at least generally comparable to ethoxychlor
[7]
  Anopheles albimanus adults LC50: 7.9 ug/cm^2
[8]
  LD50: 9.5 mg/kg
  Musca domestica NAIDM (w/PB) LD50: 2 µg/g
Mice [9]
  safety to mice relative to ethoxychlor: at least five times safer to mice than is ethoxychlor
Mouse toxicity, LD50
  LD50: ≥ 1000 mg/kg
Culex fatigans larvae
  LC50: 0.054 µg/mL (≈ 0.169 µM)
[10]
  Number of days 100% mortality: 4 days
Anopheles albimanus
  Anopheles albimanus, P50 (number of weeks that at least 50% mortality occurred): > 80 weeks
[11]
  LD50: 18 mg/kg
  Musca domestica Rsp strain w/PB LD50: 4.9 µg/g
Phormia regina
  LD50: 4.62 mg/kg

## CCOc1ccc(C(c2ccc(C)cc2)C(C)C)cc1 (stereo not drawn) [XIV]
[5]
  LC50: 0.275 µg/mL (≈ 1.02 µM)
Culex fatigans
  Culex fatigans, P50 (number of weeks that at least 50% mortality occurred): 4 weeks
Culex fatigans adults
  Culex fatigans adults-LC50: 5.0 ug/cm^2
[6]
  insecticidal activity relative to ethoxychlor: at least generally comparable to ethoxychlor
[7]
  Anopheles albimanus adults LC50: 5 ug/cm^2
[8]
  LD50: 70 mg/kg
  Musca domestica NAIDM (w/PB) LD50: 18 µg/g
Mice [9]
  safety to mice relative to ethoxychlor: at least five times safer to mice than is ethoxychlor
Mouse toxicity, LD50
  LD50: ≥ 1000 mg/kg
Culex fatigans larvae
  LC50: 0.052 µg/mL (≈ 0.194 µM)
[10]
  Number of days 100% mortality: 0 days
Anopheles albimanus
  Anopheles albimanus, P50 (number of weeks that at least 50% mortality occurred): 6 weeks
[11]
  LD50: 150 mg/kg
  Musca domestica Rsp strain w/PB LD50: 31 µg/g
Phormia regina
  LD50: 35 mg/kg
